Experiments:
[1] = system: Methylobacterium organophilum CRL 26 NRRL B-11,222; assay: Sec. alcohol oxidation by cell suspensions of methanol-grown cells; type: cell-based; conditions: sec. alcohol to methyl ketone
[2] = system: Methylococcus capsulatus CRL 25 NRRL B-11,221; assay: as above; type: cell-based; conditions: sec. alcohol to methyl ketone
[3] = system: Methylosinus trichosporium CRL 15 NRRL B-11,202; assay: as above; type: cell-based; conditions: sec. alcohol to methyl ketone
[4] = system: Methylobacter vinelandii CRL M5Y NRRL B-11,218; assay: as above; type: cell-based; conditions: sec. alcohol to methyl ketone
[5] = system: Methylocystis parvus CRL 18 NRRL B-11,204; assay: as above; type: cell-based; conditions: sec. alcohol to methyl ketone
[6] = system: Methylobacter chroococcum CRL M6 NRRL B-11,214; assay: as above; type: cell-based; conditions: sec. alcohol to methyl ketone
[7] = system: Methylobacter bovis CRL 19 NRRL B-11,217; assay: as above; type: cell-based; conditions: sec. alcohol to methyl ketone
[8] = system: Methylomonas streptobacterium CRL 17 PM3 NRRL B-11,208; assay: as above; type: cell-based; conditions: sec. alcohol to methyl ketone
[9] = system: Methylococcus capsulatus CRL M1 NRRL B-11,219; assay: as above; type: cell-based; conditions: sec. alcohol to methyl ketone
[10] = system: Methylomonas methanica (CRL 21 PM7) NRRL B-11,206; assay: Oxidation by washed cell suspensions of methane-grown cells; type: cell-based
How it was run: (§1)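 Methane-grown cells (30 °C, 2 days) washed and suspended in 0.15 M phosphate pH 7.0; 2 mg cells incubated at 30 °C, 300 rpm under substrate gas:oxygen 1:1 (10 μl for liquid substrates). Products sampled periodically and measured by flame-ionisation gas chromatography.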

[11] = system: cell fractions of Methylomonas sp. (CRL-17, NRRL B-11,208); assay: Oxidation by cell fractions P(40), P(80), S(80); type: biochemical; conditions: propylene to propylene oxide, methane to methanol, 30° C.
How it was run: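 Cells washed and French-press disrupted in 25 mM K phosphate pH 7.0 with 5 mM MgCl2; particulate P(40), P(80) and soluble S(80) fractions from 40,000×g and 80,000×g spins. Methane or propylene (1:1 with O2) oxidised at 30° C with NADH; methanol/propylene oxide by GC; activity as μmoles product/h/mg protein.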

[12] = system: Methylomonas rubrum (CRL M6P) NRRL B-11,210; assay: Oxidation by washed cell suspensions of methane-grown cells; type: cell-based; conditions: methane-grown washed cells, 30° C.; methane to methanol, alkene to 1,2-epoxide
How it was run: as §1

[13] = system: Methylomonas rosaceus (CRL M7P) NRRL B-11,213; assay: as above; type: cell-based; conditions: 30° C., methane to methanol, alkene to 1,2-epoxide
How it was run: as §1

[14] = system: cell fractions of Methylosinus trichosporium (OB3b, NRRL B-11,196); type: biochemical; conditions: S(80); propylene to propylene oxide, methane to methanol; 30° C.
Protocol: Cells were washed twice with 25 mM potassium phosphate buffer, pH 7.0 containing 5 mM MgCl2. Cells were suspended in the same buffer. The cell suspensions at 4° C. were disintegrated by a single passage through a French Pressure cell (15,000 lb./in.^2) and centrifuged at 5000×g. for 15 min. to remove unbroken bacteria. The supernatant solution (crude extract) was then centrifuged at 40,000×g. for 30 min., yielding particulate P(40) and soluble S(40) fractions. The S(40) fraction was subsequently centrifuged at 80,000×g. for 60 min., yielding particulate P(80) and soluble S(80) fractions. The particulate fractions [P(40) and P(80)] were suspended in 25 mM potassium phosphate buffer, pH 7.0, containing 5 mM MgCl2 and homogenized at 4° C.
The oxidation of methane and propylene by particulate [(P)40 and (P)80] fractions and soluble [S(80)] fraction was measured at 30° C. by estimating the production of methanol and propylene oxide, respectively. The reaction mixtures contained in […]: 150 mM potassium phosphate buffer, pH 7.0 containing 5 mM MgCl2 b, 0.6 ml; 10μ moles NADH, and cellular fraction.
Reaction mixtures were contained in 10 ml vials at 4° C. Vials were sealed with rubber caps. The gaseous phase in the vials was removed using vacuum and then was replaced with a gas mixture of methane or propylene and oxygen at a 1:1, v/v ratio. Oxidation of other gaseous n-alkanes and n-alkanes was examined as described above. For liquid substrates, 10 μl of substrate was used directly.
The products of epoxidation of n-alkenes and hydroxylation of n-alkanes were assayed by flame ionization gas chromatography using a stainless steel column (12'×1/8") packed with 10% Carbowax 20 M on 80/100 Chromosorb W and Porapak Q column. The column temperature was maintained isothermally at 120° C. The carrier gas flow rate was 30 ml/min. of helium. The various products were identified by retention time comparisons and co-chromatography with authentic standards.
Specific activities were expressed as μ moles of products formed per hour per mg. protein. Concentrations of protein in various fractions were determined by the method of Lowry et al., J. Biol. Chem., 193: 265-275 (1951).

## CCC(C)O (centres unmarked) [2-Butanol]
[1]
  Conversion Rates: 2.5 μmoles/hr/mg protein
[2]
  Conversion Rates: 0.95 μmoles/hr/mg protein
[3]
  Conversion Rates: 4.5 μmoles/hr/mg protein
[4]
  Conversion Rates: 2.0 μmoles/hr/mg protein
[5]
  Conversion Rates: 1.0 μmoles/hr/mg protein
[6]
  Conversion Rates: 1.4 μmoles/hr/mg protein
[7]
  Conversion Rates: 1.8 μmoles/hr/mg protein
[8]
  Conversion Rates: 2.0 μmoles/hr/mg protein
[9]
  Conversion Rates: 2.0 μmoles/hr/mg protein

## CCCC [Butane]
[10]; methane-grown cells, butane to 2-butanone
  Conversion Rate to Ketone: 1.5 μmoles/hr/mg Protein

## C [Methane]
[11]; P(40)
  Oxidizing Activity (rate of oxidation) in cell fraction: 2.9 μ moles of products formed per
[11]; P(80)
  Oxidizing Activity (rate of oxidation) in cell fraction: 2.7 μ moles of products formed per
[11]; S(80)
  Oxidizing Activity (rate of oxidation) in cell fraction: 0 μ moles of products formed per
[12]
  Oxidative Conversion Rates: 0.5 μmole/hr/mg protein
[13]
  Oxidative Conversion Rates: 1.4 μmole/hr/mg protein
[14]
  Oxidizing Activity (rate of oxidation) in cell fraction: 0 μ moles of products formed per

## C=CC [Propylene]
[11]; P(40)
  Oxidizing Activity (rate of oxidation) in cell fraction: 2.2 μ moles of products formed per
[11]; P(80)
  Oxidizing Activity (rate of oxidation) in cell fraction: 2.0 μ moles of products formed per
[11]; S(80)
  Oxidizing Activity (rate of oxidation) in cell fraction: 0 μ moles of products formed per
[12]
  Oxidative Conversion Rates: 1.0 μmole/hr/mg protein
[10]; methane-grown washed cells, 30° C., methane to methanol, alkene to 1,2-epoxide
  Oxidative Conversion Rates: 2.4 μmole/hr/mg protein
[13]
  Oxidative Conversion Rates: 2.0 μmole/hr/mg protein
[14]
  Oxidizing Activity (rate of oxidation) in cell fraction: 0 μ moles of products formed per
